Entries after “also recorded” stand apart in the source; their conditions may differ.

These results are taken from patent US20260193659A1, “METHODS FOR TREATING MONGE'S DISEASE” (The Regents of the University of California, priority 2022, published 2026).

In one data set the test system is Monge's disease. Conditions: patients; cited from earlier work.
A further data set relates to CMS cells. The data set is described as follows: BFU-E colony forming assay with CK2 inhibitors, iPSC-derived CD34+ cells under hypoxia. The note with it: 5% O2, 14 days, TBB 25 μM, 50 µM, 100 μM, CX4945 2.5, 5, 10 μM. In kind it is cell-based, human. Here is the method: (§1) CD34^+ cells were isolated from iPSC-derived EBs as follows. After 7 days of differentiation, EBs were harvested by spinning at 400 g for 10 minutes. After centrifugation, EBs were dissociated into single cells using Accutase treatment for 10 minutes and then filtered through a 60 μm cell strainer (Falcon). CD34^+ cells were isolated from this cell suspension using EasySep Human CD34 Positive Selection Kit 11 ([…] Technologies, 17856) per the manufacturer's instructions. These iPSC-derived CD34+ cells were used in subsequent qPCR and colony-forming assays.
CD34^+ cells used in this assay were derived from iPSC-generated EBs as described herein. CD34^+ cells were plated at a density of 10^5 cells per 35 mm dish combined with MethoCult H4034 Optimum Media ([…] Technologies, 04044) and 2% FBS. Dishes were incubated at 37° C. in an incubator with 5% CO2 and 5% O2 for 14 days, at which time colonies were scored for BFU-E and CFU-granulocyte, erythrocyte, monocyte, megakaryocyte (CFU-GEMM).
TBB (catalog ab120988) and CX4945 (catalog S2248) were purchased from Abcam and Selleckcam, respectively. Dose-response experiments were performed with the inhibitors using the following concentrations in the colony forming assays using iPSC-derived CD34^+ cells as described herein: TBB (25 μM, 50 µM, and 100 μM) and CX4945 (2.5 μM, 5 μM, and 10 μM).

For a further data set, the system named is LINC02228 (HIKER). Description: KD efficiency of LINC02228 (HIKER) by ASO, qPCR. Type of data set: cell-based, human. Conditions: CMS cells. Here is the method:
Locked nucleic acids (LNAs) targeting HIKER/LINC02228 and LINC00431 were designed and synthesized by Exiqon. The most efficient ASO for each LNA was initially tested in the pilot experiment with and without transfection reagent (Lipofectamine 3000. Life Technologies. L3000-008) in a dose-response experiment at a concentration of 10 nM, 25 nM, 50 nM, and 100 nM. The uptake and the effect of ASO were monitored by qPCR at various stages (iPSC stage and CD34+ cells isolated from EBs). For both lncRNAs, the optimal delivery for all the stages was at the 50 nM concentration without the transfection reagent.
as §1
For orientation: Real-time PCR tracks product formation cycle by cycle.

The next data set has as its system zebrafish embryos. The data set is described as follows: Hemoglobin staining (o-dianisidine) of zebrafish embryos injected with csnk2b morpholino. Type of data set: in vivo, Zebrafish (Danio rerio). The note with it: 2 dpf. Here is the method:
Zebrafish (Danio rerio) were raised in a circulating aquarium system on a 14-hour light/10-hour dark cycle at 28.5° C., following standard husbandry procedures.
The morpholino antisense oligo (MO) 5′-[…]-3′ (SEQ ID NO: 23) was synthesized to block the translation initiation of csnk2b, and the 5-mismatch oligo 5′-[…]-3′ (SEQ ID NO: 24) was synthesized as a specificity control (Gene Tools). For synthesizing CSNK2B rescue mRNA that is resistant to the translation blocking MO, the full-length csnk2b coding sequence with 4 base pairs of silent mutations in the MO recognition region was cloned into the pCS2-vector (Azenta Life Sciences), in which the first 24 base pairs of the CSNK2B coding sequence became 5′-[…]-3′ (SEQ ID NO: 25). The csnk2b capped mRNA was synthesized using the mMESSAGE mMACHINE Kit (Ambion, AM1340). Microinjection was performed on WT AB embryos at the 1- to 2-cell stages.
Embryos at 2 dpf were dechorionated and anesthetized with 0.016% tricaine (Fluka, A5040), followed by a 15-minute incubation in 0.6 mg/mL o-dianisidine solution (SigmaAldrich, D9143). This solution was prepared in 0.65% H2 O2 (EMD, HX0647-3), 40% ethanol (KOPTEC, 89125), and 10 mM sodium acetate (Fisher Chemical, S210-500) at room temperature. Stained embryos were washed twice with 1×PBS (Gibco, Thermo Fisher Scientific, 14200166) and then fixed in 4% paraformaldehyde (PFA) (SigmaAldrich, P6148). Hemoglobin signal was observed under a light microscope and quantified according to the area and intensity in the heart and common cardinal vein; embryos were categorized into normal, medium, and low hemoglobin levels.

On to `CC(=O)Nc1nnc(S(N)(=O)=O)s1` [Acetazolamide], for which the “clinical response in Monge's disease” value with Monge's disease was “mild response and relief of symptoms”.
In the case of `Brc1c(Br)c(Br)c2n[nH]nc2c1Br` [TBB], the “BFU-E colonies (erythroid colony numbers)” value in the data set on CMS cells is “significant changes were observed in the colony numbers in a dose-dependent manner; also recorded: decreases BFU-E colonies in CMS cells in a dose-dependent manner”.
As for “ASO-1: LNA gapmer ASO targeting HIKER/LINC02228, SEQ ID NO 1: G*G*T*T*G*C*T*T*T*C*A*G*G*C*C*C*C*T*T*A (antisense GGTTGCTTTCAGGCCCCTTA; all phosphorothioate, sugars by position and methylation of C not given here; LNA gapmer)”, the “KD efficiency, ranking among the 3 ASOs” value with LINC02228 (HIKER) was “highest KD efficiency”.
For “MO: morpholino antisense oligo 5′-CGACACTTCCTCTGAGCTACTCATG-3′ (SEQ ID NO: 23) blocking translation initiation of csnk2b (all phosphorodiamidate morpholino (PMO))”, in the data set with zebrafish embryos (1 ng dose), the hemoglobin levels result is reported as “minimal impact on hemoglobin levels”. Besides, the hemoglobin versus controls entry with zebrafish embryos (3 ng and 5 ng MO dosage) is recorded as “remarkable decrease in hemoglobin”. In the data set on zebrafish embryos (3 ng and 5 ng MO), the “morphants showing moderate or low iron staining” value was “more than 97%”. Further, the “hemoglobin, dose dependence” value in the data set on zebrafish embryos (1, 3 or 5 ng) was “dose-dependent loss of hemoglobin”.
